Where two headings read alike, the source gives them in different places. Where no end group is shown, it is not given here.
Assays:
DRB4*0101 (DRw53) [1] = biological target: T1, DRB4*0101 (DRw53) (Homo sapiens, UniProt P01903+P13762, G164S); experiment: biochemical
DRB1*1302 (DR6w19) = DRB1*1302 (DR6w19) (Homo sapiens, UniProt P01903+P01911, A100E/A169T/K41T/L162R/M171V/P40S/Q125H/Q178H/Q39Y/Q99D/R42S/S66N/T262R/V115G/W38E/Y61H); experiment: biochemical
DRB1*0404 (DR4w14) = DRB1*0404 (DR4w14) (Homo sapiens, UniProt P01903+P01911, A100R/A169T/F76Y/I96L/K127E/L162R/M171V/N62H/P40V/Q125Y/R42H/S133A/S149N/S66Y/V209L/W38E); experiment: biochemical
DRB5*0101 (DR2w2beta-2) = DRB5*0101 (DR2w2beta-2) (Homo sapiens, UniProt P01903+Q30154); experiment: biochemical
DRB1*0101 (DR1) = DRB1*0101 (DR1) (Homo sapiens, UniProt P01903+P01911, A100R/D57E/F55L/F60I/F76Y/I96L/L162R/M171V/P40L/Q125E/R42F/V115G/Y59C); experiment: biochemical
DRB1*0301 (DR3) = DRB1*0301 (DR3) (Homo sapiens, UniProt P01903+P01911, A100K/A102G/A103R/A169T/F55Y/I96L/K41T/L162R/M171V/P40S/Q125H/Q178H/Q39Y/R42S/S66N/T106N/T262R/W38E/Y61H); experiment: biochemical
DRB1*0301 (DR3), sequence (P01903 26-254, other chains not shown): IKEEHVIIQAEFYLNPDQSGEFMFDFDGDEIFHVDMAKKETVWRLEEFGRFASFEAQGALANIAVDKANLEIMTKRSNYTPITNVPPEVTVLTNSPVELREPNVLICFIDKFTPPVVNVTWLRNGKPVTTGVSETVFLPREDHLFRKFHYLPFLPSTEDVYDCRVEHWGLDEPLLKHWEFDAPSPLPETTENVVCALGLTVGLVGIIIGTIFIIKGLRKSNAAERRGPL

DRB1*0901 = DRB1*0901 (Homo sapiens, UniProt P01903+P01911, A100R/A103E/D57H/D86V/F55Y/F60I/F76Y/I96F/K127E/L162R/M171V/P40D/Q125H/Q99R/R33Q/R42F/S133A/S66N/T210M/V115G/W38K/Y107V/Y59G/Y89S); experiment: biochemical
DRB1*0701 (DR7) = DRB1*0701 (DR7) (Homo sapiens, UniProt P01903+P01911, A100R/A102G/A103Q/D57E/D86V/E43K/F76Y/K127E/L162R/M171V/P40G/Q125H/Q99D/R33Q/R42Y/R54Q/S133A/S66F/T210M/V115G/Y107V/Y59L/Y89S); experiment: biochemical
DRB1*0405 (DR4w15) = DRB1*0405 (DR4w15) (Homo sapiens, UniProt P01903+P01911, A100R/A169T/D86S/F76Y/I96L/K127E/L162R/M171V/N62H/P40V/Q125Y/R42H/S133A/S149N/S66Y/V115G/V209L/W38E); experiment: biochemical
DRB1*0405 (DR4w15), sequence (P01903 26-254 partner, other chains not shown): as the sequence (P01903 26-254, other chains not shown) above

DRB1*0401 (DR4w4) [2] = biological target: T2, DRB1*0401 (DR4w4) (Homo sapiens, UniProt P01903+P01911, A100K/A169T/F76Y/I96L/K127E/L162R/M171V/N62H/P40V/Q125Y/R42H/S133A/S149N/S66Y/V115G/V209L/W38E); experiment: biochemical
T2 sequence (P01903 26-254 partner, other chains not shown): as the sequence (P01903 26-254, other chains not shown) above

DRB1*1101 (DR5) = DRB1*1101 (DR5) (Homo sapiens, UniProt P01903+P01911, A100R/A169T/A87E/I96F/K41T/L162R/M171V/P40S/Q125H/Q178H/Q39Y/Q99D/R42S/S66Y/T262R/V115G/W38E); experiment: biochemical
DRB1*1101 (DR5), sequence (P01903 26-254 partner, other chains not shown): as the sequence (P01903 26-254, other chains not shown) above

DRB1*0802 (DR8w2) = DRB1*0802 (DR8w2) (Homo sapiens, UniProt P01903+P01911, A100R/A103L/A169T/F76Y/H45Y/I96F/K41T/L162R/M171V/P40S/Q125H/Q178H/Q39Y/Q99D/R218S/R42G/S66Y/V115G/W38E); experiment: biochemical
DRB4*0101 (DRw53) [3] = biological target: T1, DRB4*0101 (DRw53); details: read-out: IC50 nM to purified HLA DRB4 *0101; HTL epitopes
DRB1*0401 (DR4w4) [4] = biological target: T2, DRB1*0401 (DR4w4); details: read-out: IC50 nM to purified HLA DRB1 *0401; HTL epitopes
DRB1*1501 (DR2w2beta-1) = DRB1*1501 (DR2w2beta-1) (Homo sapiens, UniProt P01903+P01911); experiment: biochemical

DRB1*1302 (DR6w19), sequence (P01903 26-254, other chains not shown): as above

Molecule | IC50 (DRB4*0101 (DRw53) [1]) | IC50 (DRB1*1302 (DR6w19)) | IC50 (DRB1*0404 (DR4w14)) | IC50 (DRB5*0101 (DR2w2beta-2)) | IC50 (DRB1*0101 (DR1)) | IC50 (DRB1*0301 (DR3)) | IC50 (DRB1*0901) | IC50 (DRB1*0701 (DR7)) | IC50 (DRB1*0405 (DR4w15)) | IC50 (DRB1*0401 (DR4w4) [2]) | IC50 (DRB1*1101 (DR5)) | IC50 (DRB1*0802 (DR8w2)) | IC50 (DRB4*0101 (DRw53) [3]) | IC50 (DRB1*0401 (DR4w4) [4]) | IC50 (DRB1*1501 (DR2w2beta-1))
CC[C@H](C)[C@H](NC(=O)CNC(=O)[C@H](CCC(=O)O)NC(=O)[C@H](Cc1c[nH]cn1)NC(=O)[C@@H](NC(=O)[C@H](Cc1ccc(O)cc1)NC(=O)[C@H](Cc1ccc(O)cc1)NC(=O)[C@H](CC(C)C)NC(=O)CN)C(C)C)C(=O)N[C@@H](CCCNC(=N)N)C(=O)N[C@H](C(=O)N[C@@H](Cc1ccc(O)cc1)C(=O)N[C@@H](Cc1ccccc1)C(=O)N[C@H](C(=O)N[C@@H](CCC(N)=O)C(=O)O)C(C)C)[C@@H](C)O [compound 93] | > 20000 nM | > 20000 nM | > 20000 nM | 1000 nM |  |  |  |  |  |  |  |  |  |  | 
CC[C@H](C)[C@H](N)C(=O)N[C@@H](CCC(=O)O)C(=O)N[C@@H](Cc1ccccc1)C(=O)N[C@H](C(=O)N[C@H](C(=O)N[C@@H](Cc1ccccc1)C(=O)N[C@@H](CC(C)C)C(=O)NCC(=O)N[C@@H](C)C(=O)N[C@@H](CC(C)C)C(=O)N[C@@H](CCCCN)C(=O)N[C@@H](CO)C(=O)N[C@@H](Cc1ccccc1)C(=O)N[C@@H](CC(C)C)C(=O)N[C@@H](CCCCN)C(=O)O)[C@@H](C)O)[C@@H](C)CC [compound 99] |  |  |  |  | 30 nM | > 20000 nM | > 20000 nM | > 20000 nM | 3650 nM |  |  |  |  |  | 
CC[C@H](C)[C@H](NC(=O)[C@H](C)NC(=O)[C@H](CCCCN)NC(=O)[C@@H](N)Cc1c[nH]cn1)C(=O)N[C@@H](CCC(=O)O)C(=O)N[C@@H](CC(C)C)C(=O)N[C@@H](CCC(N)=O)C(=O)N[C@@H](CCSC)C(=O)N[C@@H](C)C(=O)N[C@@H](CC(C)C)C(=O)N[C@@H](CCC(N)=O)C(=O)NCC(=O)N[C@@H](CC(C)C)C(=O)N[C@@H](C)C(=O)N[C@@H](CCC(N)=O)C(=O)O [compound 101] | 3 nM |  |  |  |  |  |  |  |  | 50 nM |  |  |  |  | 
DWVMAIFGVNPTVAEGF [compound 114] | 571 nM |  | 20 nM | 387 nM |  | 3750 nM | 17900 nM |  | 92 nM |  | 4960 nM | 4270 nM |  |  | 
LQAIELQLTLETIYN (Human papillomavirus type 16) [SEQ ID 92] |  |  |  |  |  |  |  |  |  |  |  |  | 2 nM | 37 nM | 
NGWFYVEAVIDRQTG [compound 106] |  |  |  | 1200 nM | 1860 nM | 2800 nM | 3670 nM | 1460 nM | 178 nM | 845 nM |  |  |  |  | 
WKHIRLECVLMYKAR [compound 108] | 102 nM |  |  | 412 nM |  | 146 nM | 11800 nM | 16400 nM | 71 nM | 263 nM | 81 nM | 476 nM |  |  | 134 nM
WKHMRLECAIYYKAR [compound 91] | 766 nM | 248 nM | 6860 nM | 280 nM | 701 nM | 437 nM | 6340 nM | 504 nM | 557 nM | 245 nM | 2400 nM | 90 nM |  |  | 1390 nM
